The source of these data is patent publication US5352680A, “Delta opioid receptor antagonists to block opioid agonist tolerance and dependence” (priority 1992, dated 1994).

The subject of data set [1] is mu opioid receptor. Particulars: monkeys; cited from earlier work.
Data set [2] concerns mu opioid receptor. Particulars: dose used by DeLander et al.; cited from earlier work.
Data set [3] relates to mu opioid receptor. Particulars: rats; cited from earlier work.
The subject of data set [4] is mu opioid receptors. Nature of the data set: Effect on antinociceptive activity of the mu agonist DAMGO. The data set is classed as in vivo, mice (male Swiss-Webster). The settings on record: NTI 10 pmol/mouse, once or twice; 5'-NTII 10 nmol/mouse 24 hr before DAMGO. The method, then: (§1) NTI (10 pmol/mouse) was administered 100 min before the i.c.v. injection of DAMGO and 20 min later, at the peak effect of DAMGO, the antinociceptive activity of the peptide was assessed. In another group of mice, NTI (10 pmol/mouse) was administered twice, once at 100 min before and again at the same time as the i.c.v. injection of DAMGO. 5'-NTII (10 nmol/mouse) was administered 24 hr before being tested with DAMGO.

Data set [5] addresses T1, delta opioid receptors (Mus musculus, UniProt P32300).
T1 construct: from tissue; host or cells: living mouse, intracerebroventricular dosing (endogenous receptor)
Particulars: previously reported; cited from earlier work.

The target in data set [6] is T1, delta opioid receptors. Nature of the data set: Antagonism of delta opioid receptor agonists (DSLET) in vivo. Also on record: species or system mice.
Data set [7] has as its system mu opioid receptor. Nature of the data set: Antagonism of mu opioid receptor agonists. The data set is classed as in vivo. Particulars: 10 nmol/mouse i.c.v., 24 hours. As to the method:
as §1

Data set [8] relates to kappa opioid receptor. Particulars: shown previously; cited from earlier work.
The test system of data set [9] is delta opioid receptors. The settings on record: shown previously; cited from earlier work.
Data set [10] deals with kappa opioid receptor. Nature of the data set: Antagonism of kappa opioid receptor agonists. The data set is classed as in vivo. Particulars: 10 nmol/mouse i.c.v., 24 hours.
Data set [11] has as its system development of morphine tolerance in mice treated chronically with morphine. The data set is classed as in vivo, mice (male Swiss-Webster). The settings on record: for increase of the ED50 of morphine sulfate vs control animals: antagonist together with morphine pellets; for effect on development of tolerance: with morphine pellets. The method, then:
(§2) Male Swiss-Webster mice (BioLab, White Bear Lake, Minn.) weighing 20 to 25 g were used. The mice were rendered tolerant to and dependent on morphine by s.c. implantation of one morphine pellet (75 mg free base)/mouse for 3 days according to the procedure of E. L. Way et al., J. Pharmacol. Exp. Ther., 167, 1 (1969). Control animals were implanted with placebo pellets. Mice were anesthetized lightly with methoxyflurane during the implantation process. […] Chem. Pathol. Pharmacol., 16, 721 (1977).
At least 30 mice (10/group) and three to four dose levels were used to determine each ED50 value.
The ED50 values of morphine and their 95% CL were determined by the parallel line assay of D. J. Finney, Statistical Methods in Biological Assay, Hafner Pub. Co., N.Y. (2d ed. 1969) with the aid of a computer program which has the capability to analyze at the same time 12 lines (dose-response curves) and 6 points (dose levels) per line with log and probit transformations and 35 repetitions per point.
(§3) Mice were implanted with a single placebo (control) or morphine pellet (75 mg free base) for 3 days. NTI (10 pmol/mouse) was administered i.c.v. 90 min before and 24 and 48 hr after the morphine pellet implantation. 5'-NTII (10 nmol/mouse) was administered 24 hr before, at the same time as and 24 and 48 hr after the morphine pellet implantation.

The subject of data set [12] is mu opioid receptor. Particulars: shown previously; cited from earlier work.
In data set [13] the test system is development of physical dependence in mice treated chronically with morphine. As to the kind of experiment: Naloxone-induced withdrawal jumping: physical dependence, mice treated chronically with morphine. The data set is classed as in vivo, mice (male Swiss-Webster). The settings on record: with morphine pellet. The method, then: as §2, §3
The test system of data set [14] is antinociceptive activity. Nature of the data set: Antinociceptive activity of the antagonist itself. The class given is in vivo, mice. Particulars: for antinociceptive activity: mouse, in vivo.
The subject of data set [15] is development of physical dependence in mice treated acutely with morphine. The data set is classed as in vivo, mice (male Swiss-Webster).
For data set [16], the system named is delta opioid receptor. As to the kind of experiment: Delta antagonist potency/selectivity comparison (one assay).
The subject of data set [17] is development of morphine tolerance in mice treated acutely with morphine. The class given is in vivo, mice (male Swiss-Webster). The settings on record: NTI 10 pmol/mouse i.c.v.; morphine sulfate 100 mg/kg s.c.

Where two headings read alike, the source gives them in different places.

T1 sequence (P32300 whole entry): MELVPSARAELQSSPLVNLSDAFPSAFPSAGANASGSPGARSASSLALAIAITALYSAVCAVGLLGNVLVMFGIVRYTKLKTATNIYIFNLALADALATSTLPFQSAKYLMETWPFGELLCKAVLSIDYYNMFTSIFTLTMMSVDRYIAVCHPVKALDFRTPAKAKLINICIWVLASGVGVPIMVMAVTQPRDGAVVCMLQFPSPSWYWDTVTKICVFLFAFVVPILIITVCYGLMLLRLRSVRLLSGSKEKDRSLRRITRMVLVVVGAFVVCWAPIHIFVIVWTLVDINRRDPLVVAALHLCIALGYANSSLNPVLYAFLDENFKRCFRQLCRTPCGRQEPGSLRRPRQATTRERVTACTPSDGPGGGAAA

As to `COC(=O)/C=C/C(=O)N[C@@H]1CC[C@@]2(O)[C@H]3Cc4ccc(O)c5c4[C@@]2(CCN3CC2CC2)[C@H]1O5` [β-FNA, β-funaltrexamine], the withdrawal signs entry in data set [1] is on record as “induce long-lasting withdrawal signs in monkeys”. Besides, in data set [2], the “effect on morphine-induced antinociception” value is “significantly inhibited morphine-induced antinociception”. Besides, the “effect on development of morphine tolerance and dependence” value in [3] was “inhibit the development of morphine tolerance and dependence in rats”.
On to `Oc1ccc2c3c1O[C@H]1c4[nH]c5ccc(N=C=S)cc5c4C[C@@]4(O)[C@@H](C2)N(CC2CC2)CC[C@]314` [5'-NTII, naltrindole 5'-isothiocyanate], for which the “effect on the antinociceptive activity of DAMGO” value in [4] is “neither NTI nor 5'-NTII, at the dosages and injection protocol used, altered the anti-nociceptive activity of DAMGO”. Moreover, in data set [5], the “duration of action against delta agonists” value was “more than 48 hr”. In [6] (10 nmol/mouse i.c.v.), the “selectivity for delta opioid receptors” value is “high selectivity for delta opioid receptors”. Also, the “increase of ED50 of DSLET” value in [6] (24 hours after 10 nmol/mouse i.c.v.) is recorded as 50 fold. Also, in [7], the “effect on ED50s of mu opioid receptor agonists” value is reported as “without affecting the ED50 s of mu or kappa opioid receptor agonists”. Moreover, the “effect on activity of kappa opioid receptor agonists” value in data set [8] is “minimal or no effect”. In addition, the “antagonism of delta opioid receptor agonists” value in [9] is listed as “highly effective antagonists against the activity of delta opioid receptor agonists”. The “effect on ED50s of kappa opioid receptor agonists” value in data set [10] was “without affecting the ED50 s of mu or kappa opioid receptor agonists”. For the same compound, in data set [11], the “increase of the ED50 of morphine sulfate vs control animals” value is listed as 3 fold and the “effect on development of tolerance” value was “the development of tolerance was suppressed substantially”. Besides, in data set [12], the “effect on activity of mu opioid receptor agonists” value is on record as “minimal or no effect”. Also, the “effect on development of physical dependence” value in data set [13] is “appeared to block it completely”. In data set [14], the antinociceptive activity entry is “without any antinociceptive activity”.
Consider `Oc1ccc2c3c1O[C@H]1c4[nH]c5ccccc5c4C[C@@]4(O)[C@@H](C2)N(CC2CC2)CC[C@]314` [NTI, 17-(cyclopropylmethyl)-6,7-dehydro-3,14β-dihydroxy-4,5α-epoxy-6,7-2',3'-indolmorphinan], for which the “effect on the antinociceptive activity of DAMGO” value in data set [4] was “neither NTI nor 5'-NTII, at the dosages and injection protocol used, altered the anti-nociceptive activity of DAMGO”. In addition, the “duration of antagonist activity against delta opioid receptor agonists” value in data set [6] (NTI, b221: against the antinociceptive effect of DSLET) was in the range of 18 to 24 h. Also, in [15] (pretreated twice with NTI before inducing dependence), the “times more naloxone required to precipitate withdrawal jumping” value was 45 times. The “times more naloxone required to precipitate withdrawal jumping” value in data set [15] (single dose of NTI 90 min before or at same time as 100 mg/kg morphine sulfate) was “about 10 times”. The “effect on activity of kappa opioid receptor agonists” value in [8] is “minimal or no effect”. Besides, in data set [9], the “antagonism of delta opioid receptor agonists” value is “highly effective antagonists against the activity of delta opioid receptor agonists”. Further, the “potency relative to ICI 174864” value in [16] (vs peptide delta antagonist ICI 174864) was “at least 500 times”. The “selectivity relative to M8008” value in [16] (vs structurally unrelated opiate M8008) is on record as “more selective than the structurally unrelated opiate M8008”. In data set [17], the “effect on development of acute tolerance” value is reported as “completely prevented the development of acute tolerance”. In data set [11], the “increase of the ED50 of morphine sulfate vs control animals” value is 2 fold and the “effect on development of tolerance” value is “the development of tolerance was suppressed substantially”. For the same compound, in data set [12], the “effect on activity of mu opioid receptor agonists” value was “minimal or no effect”. Also, the “effect on development of physical dependence” value in data set [13] is given as “suppressed the development of dependence substantially”. In data set [14] (i.c.v.), the “maximum dose with selective antagonism at delta opioid receptors without detection of antinociceptive activity” value was 10 pmol/mouse. Also, in [14], the antinociceptive activity entry is given as “possesses antinociceptive activity”.
